Experimental data from ChEMBL document CHEMBL3507680, “University of Dundee, Gates Library screen for HepG2 cell viability”.

Assay: Human HepG2 cell viability assay in 384 well format
Format: toxicity, cell-based
Set-up: dose 125 nL, time 70.5 hour; concentration not given beside the values
Details: HepG2 cells, read-out: Inhibition

Going from N#Cc1cc(C#N)c(SCC(=O)Nc2ccc(F)cc2)nc1N to CS(=O)(=O)Cc1ccc(NC(=O)Cc2cccnc2)cc1F, the cytotoxicity at 70.5 h falls from 5.41% to -4.71%.

Going from CS(=O)(=O)NCc1cc2n(n1)CCCN(Cc1cc3ccccc3o1)C2 to CNc1cncc(C2CCCN2C(=O)Cn2c(=O)oc3ccccc32)n1 (centres undefined), the cytotoxicity at 70.5 h rises from -5.83% to -5.11%.

First: NS(=O)(=O)CCNC(=O)c1nnn(-c2ccc(F)cc2)c1C1CC1
Second: Cn1c(-c2ccccc2Cl)nc2cc(C(=O)NCCS(C)(=O)=O)cnc21
The cytotoxicity at 70.5 h of the first is higher: -2.85% for the first, -7.15% for the second.

First: N#CCCNC(=O)CN1CC(n2cccn2)C1
Second: O=C(COCc1ccccc1Cl)N1CCCC(n2cccn2)C1 (centres undefined)
The cytotoxicity at 70.5 h of the first is lower: -1.56% for the first, 3.17% for the second.

Going from COCC(=O)N1CC(c2n[nH]cc2C)C1 to COCC(=O)N1CC[C@H]2C[C@H](c3nnc(C4CC4)o3)O[C@@H]2C1, the cytotoxicity at 70.5 h falls from -6.26% to -8.34%.

Going from COc1c(CNCc2ccccc2CO)c(C)nn1C to Cc1nn(C)c(C)c1CC(=O)NCc1cccnc1N1CCOCC1, the cytotoxicity at 70.5 h falls from -5.09% to -5.49%.

Compared with Cc1csc2c(N3CCC(Cn4cc(C(C)(C)O)nn4)CC3)ncnc12, CCOc1ncccc1C(=O)N1CCCC1Cn1nc(C)cc1C (centres undefined) is higher in cytotoxicity at 70.5 h: -9.53% for the first, 5.47% for the second.

First: CCc1nnc2n1CCN(CC(=O)Nc1cc(C)nn1C)C2
Second: c1ccc(OCc2nnc3n2CCN(Cc2ccco2)C3)nc1
The cytotoxicity at 70.5 h of the first is lower: -4.31% for the first, -2.29% for the second.

Compared with CC1CCC(NS(=O)(=O)CC(=O)NC2(C(N)=O)CCCC2)CC1 (centres undefined), O=C(C1CCN(S(=O)(=O)N2CCCC2)CC1)N1CCC2(CC1)OCCO2 is lower in cytotoxicity at 70.5 h: -7.07% for the first, -7.18% for the second.

Going from Cc1cnn(CC2CCCCN2CCn2cncn2)c1 (centres undefined) to O=C(CCNC(=O)C1CCCC1)NCc1cccnc1-n1cncn1, the cytotoxicity at 70.5 h falls from 1.52% to -9.48%.

Compared with O=C(c1cc(C2CC2)on1)N1CC[C@]2(C[C@H](Oc3cccnc3)CO2)C1, Cc1cccc2[nH]c(C3CCN(C(=O)c4cccnn4)CC3)nc12 is higher in cytotoxicity at 70.5 h: -16.2% for the first, 16.6% for the second.

First: CC(=O)NCC1CCC2(CCN(c3ncc(C)cn3)CC2)O1 (centres undefined)
Second: CN1CCC2(CCN(c3ncc(F)cn3)CC2)C1=O
The cytotoxicity at 70.5 h of the first is lower: -3.04% for the first, -1.11% for the second.

Going from Cc1nc(C2CN(Cc3ccc(F)cc3Br)CCO2)no1 (centres undefined) to Cc1noc(NCc2ccc(F)cc2F)n1, the cytotoxicity at 70.5 h rises from -5.56% to 21.8%.

Compared with CC(C)CN1C[C@H]2CCN(C(=O)C3CCCO3)CC[C@H]2S1(=O)=O (some centres undefined), CCC1=N[C@@]2(CC[C@@H]3CN(S(=O)(=O)CC(C)C)C[C@@H]32)C(=O)N1CC1CC1 is higher in cytotoxicity at 70.5 h: -8.39% for the first, 0.026% for the second.

Going from CC(C)(C)CCN1CCN(c2snc(Cl)c2C#N)CC1 to CCS(=O)(=O)N1CCN(C(C)(C)CO)CC1, the cytotoxicity at 70.5 h falls from 4.63% to -3.71%.

Compared with CCn1cc(-c2nn3c(C(F)(F)F)nnc3s2)cn1, CCOc1nn(CC)cc1-c1nnc(SCc2ccccn2)n1C is higher in cytotoxicity at 70.5 h: -16.2% for the first, -6.8% for the second.

Going from CC/C=C(/C)C(=O)NCc1ccnc(OC2CCOCC2)c1 to CCc1cc(C(=O)NCC2CCN(Cc3ccncc3)CC2)on1, the cytotoxicity at 70.5 h falls from -9.32% to -9.67%.

Compared with O=C(c1ccccc1F)N1CC(c2nc(-c3ccc[nH]c3=O)no2)C1, Cc1ccccc1-n1c(C)cc(C(=O)N2CCn3c(C)nnc3C2)c1C is higher in cytotoxicity at 70.5 h: -2.53% for the first, -1.44% for the second.

First: COCCCN(C)C1CCCN(Cc2noc(C3CC3)n2)C1 (centres undefined)
Second: CCc1nc(CN2CCCC(N(C)Cc3cnc(C)s3)C2)no1 (centres undefined)
The cytotoxicity at 70.5 h of the first is higher: 11.8% for the first, -2% for the second.

Compared with Cc1cccc(C(=O)N2CCCC(c3nccn3Cc3cscn3)C2)n1 (centres undefined), CCOC(=O)NC1CCCN(Cc2ccc(-n3cncn3)c(C)c2)C1 (centres undefined) is higher in cytotoxicity at 70.5 h: -5.05% for the first, -0.7% for the second.

First: COC[C@@H]1CCC[C@]12CN(CCc1ccccc1)CCO2
Second: COc1ccc(CCN2CCCC(CN(C)Cc3ccc(C)o3)C2)cc1 (centres undefined)
The cytotoxicity at 70.5 h of the first is lower: -12.8% for the first, -5.02% for the second.

Going from Fc1ccc(CC2CCN(Cc3nccs3)CC2)cc1 to Cc1ccnc(N2CCN(Cc3ccccc3)CC(O)C2)c1 (centres undefined), the cytotoxicity at 70.5 h rises from -7.34% to -3.12%.

Going from CCC(CC(=O)NS(=O)(=O)C(C)C)c1ccccc1 (centres undefined) to CCS(=O)(=O)CC(=O)NC(C)c1ccccc1Oc1ccccc1 (centres undefined), the cytotoxicity at 70.5 h falls from 11.1% to 2.99%.

Going from Cc1nc(O)c2nnn(C[C@H]3CCCN3C(=O)C3CCCC3)c2n1 to O=C(C1CCC1)N1CCCC1c1nnc2n1CCCCC2 (centres undefined), the cytotoxicity at 70.5 h rises from -4.22% to 9.95%.

First: COC(=O)c1ccccc1NC(=O)c1c(C)cn(C)c1CC(=O)O
Second: COc1nn(C)cc1C(=O)NCC1(O)CCc2ccccc2C1 (centres undefined)
The cytotoxicity at 70.5 h of the first is higher: 18.3% for the first, -5.25% for the second.

Compared with Cc1nnc(-c2cccc(N3CCC(NC4CCSC4)CC3)c2)s1 (centres undefined), Cc1cc(C)n(CCC(=O)N2CCC(Nc3cccnn3)CC2)n1 is lower in cytotoxicity at 70.5 h: 4.71% for the first, -12.8% for the second.

Going from c1cc(CN2CCc3cncnc3C2)c2c(c1)OCCO2 to CN(Cc1cnn(C)c1)C(=O)Cc1ccc2c(c1)OCCO2, the cytotoxicity at 70.5 h falls from -6.07% to -62.7%.

Compared with CCOCC(O)CN1CCN(C(=O)c2cccc(CC#N)c2)CC1 (centres undefined), CCCN(CC(=O)N1CCNCC1)C(=O)c1cccc(Cl)c1 is lower in cytotoxicity at 70.5 h: -1.07% for the first, -15.8% for the second.

First: CC(C)NC(=O)NCc1ccccc1NS(=O)(=O)c1ccccc1
Second: CN1CCN(Cc2ccccc2CNC(=O)c2ccc(Br)cc2)CC1
The cytotoxicity at 70.5 h of the first is higher: 12.7% for the first, -7.15% for the second.

Going from Nc1cc(O)nc(CCNC(=O)CC[C@@H]2CCCN3CCCC[C@H]23)n1 to CC(c1ccc(C(=O)NCCc2nc(N)cc(O)n2)o1)N1CCCCC1 (centres undefined), the cytotoxicity at 70.5 h rises from -4.87% to -3.9%.

Going from CC(C)n1ncc2c1NC(=O)CSC2C(C)(C)C (centres undefined) to Cn1cccc1C1CCCN1Cc1noc(C(C)(C)C)n1 (centres undefined), the cytotoxicity at 70.5 h falls from -2.79% to -21.2%.

First: COc1nn(C)c2c1CCCN(C(=O)c1c[nH]cn1)C2
Second: CSCC(=O)N1CCc2c(cnc(C)c2-c2noc(-c3cc[nH]n3)n2)C1
The cytotoxicity at 70.5 h of the first is higher: -1.78% for the first, -12.6% for the second.

Compared with O=C(c1ccoc1)N1CC[C@@H]2O[C@H](COCc3ccccn3)CC[C@@H]21, CCOCCOc1ccccc1C(=O)N1C[C@H](C2CC2)[C@@H](N)C1 is higher in cytotoxicity at 70.5 h: -11.6% for the first, 27.2% for the second.

First: NC(=O)C1CCCN1C(=O)c1cccc2c1OCO2 (centres undefined)
Second: O=C(Cn1ccc2sccc2c1=O)NC1CCCCC1
The cytotoxicity at 70.5 h of the first is higher: -1.57% for the first, -9.58% for the second.

Going from COc1ccc(C(C)n2ccnc2-c2cc3n(n2)CCCNC3)cc1F (centres undefined) to COc1ccc(Cl)cc1-n1c(COC(C)C)n[nH]c1=O, the cytotoxicity at 70.5 h falls from -0.853% to -9.9%.

First: NC[C@H]1CC[C@H](C(NC(=O)CC2CCCC2)c2ccccn2)CC1 (some centres undefined)
Second: c1cnn(CC2CN(CC3CCCC3)CCO2)c1 (centres undefined)
The cytotoxicity at 70.5 h of the first is higher: -0.374% for the first, -9.69% for the second.

Compared with CCn1cc(-c2cc(-c3cc(CN(C)C)cs3)nc(N)c2C#N)c(C)n1, COCCCN(Cc1ccncc1)c1cc(C)ncn1 is higher in cytotoxicity at 70.5 h: -6.34% for the first, 6.24% for the second.

First: Cc1cccc(CN2C[C@H]3OC(=O)N(CCCN4CCOCC4)[C@H]3C2)n1
Second: C1CN(CC2CCOCC2)Cc2c(CN3CCOCC3)nnn2C1
The cytotoxicity at 70.5 h of the first is lower: -10.1% for the first, 6.54% for the second.

Compared with Cc1cc(NC(=O)NC(C)CO)ccc1OCC(F)(F)F (centres undefined), Cc1ccc(NC(=O)c2ncc(C(N)=O)cc2Cl)cc1F is lower in cytotoxicity at 70.5 h: -2.25% for the first, -87.6% for the second.

First: Cc1cc(C)c(C(=O)N2CCC3(CCCN(CC(C)(C)C)C3)C2)[nH]1 (centres undefined)
Second: CN(C)CCN1CCCC12CCCN(C(=O)c1cccnc1)C2 (centres undefined)
The cytotoxicity at 70.5 h of the first is higher: 15.2% for the first, -5.22% for the second.

Compared with O=C(c1cn(-c2ccccc2Cl)nn1)N1CCCSCC1, O=C(CN1CCOC1=O)N1CCC2(CCc3ccccc32)CC1 is higher in cytotoxicity at 70.5 h: -9.29% for the first, 7.69% for the second.

First: Cc1nc[nH]c1-c1nccn1CCN(C)S(C)(=O)=O
Second: CCS(=O)(=O)NCCCn1ncc2c(C)cccc21
The cytotoxicity at 70.5 h of the first is higher: 3.1% for the first, -1.77% for the second.

Going from CCOc1cccc(NC(=O)c2cnc(C)cn2)n1 to COc1ccc(C(=O)Nc2cc(CC(C)C)nn2C)cc1, the cytotoxicity at 70.5 h rises from -3.9% to 7.52%.

Going from COc1ccc(C(C)N(C)Cc2c(C3CC3)[nH]c3ncccc23)cc1 (centres undefined) to CC(C)Nc1ncccc1C(=O)NCc1ccnn1C, the cytotoxicity at 70.5 h rises from -3.9% to 6.47%.

First: CCN1CC2(CC1=O)CN(C(C)=O)CCN(C(=O)NC)C2 (centres undefined)
Second: CCCc1ccc(CN2CCC3(CCC(=O)N(CCO)C3)CC2)o1
The cytotoxicity at 70.5 h of the first is higher: -3.8% for the first, -3.93% for the second.

First: CC(C)c1nc2n(n1)CC(NCc1nnnn1C1CC1)CC2 (centres undefined)
Second: CC(C)SCC(=O)NCc1cc2n(n1)CCCN(C1CCCCC1)C2
The cytotoxicity at 70.5 h of the first is lower: -5.21% for the first, 25.3% for the second.

Going from CCN1CCc2[nH]nc(C(=O)N3CCCC3C)c2C1 (centres undefined) to Cc1cc(C(=O)N2CCc3ncnc(N4CCSCC4)c3CC2)[nH]n1, the cytotoxicity at 70.5 h falls from 4.99% to -5.82%.

Going from Cc1noc(C)c1CN1CC[C@H]2C[C@@H](c3nccs3)O[C@@H]2C1 to CS(=O)(=O)NC[C@H]1OC[C@@H]2CN(Cc3cccnc3)CC[C@@H]21, the cytotoxicity at 70.5 h rises from -14.7% to -2.64%.

Going from CC(C)(C)CC1CCCN1Cc1nc(-c2ccco2)no1 (centres undefined) to CN(C)CCN1CCc2ncc(CN(C)Cc3ccco3)n2CC1, the cytotoxicity at 70.5 h rises from 18% to 30%.

Going from Cc1nc2c(c(Nc3ccccn3)n1)CN(S(C)(=O)=O)CC2 to O=c1[nH]c(COc2ccccc2Cl)nc2c1CCNC2, the cytotoxicity at 70.5 h falls from 23.4% to -4.85%.

Compared with O=C(NC[C@H]1OC[C@@H](NC2CCC(F)(F)CC2)[C@@H]1O)N1CCOCC1, O=C1N(CCO)CCCC12CCN(Cc1noc(C3CCCC3)n1)C2 (centres undefined) is higher in cytotoxicity at 70.5 h: -6.74% for the first, 5.43% for the second.

First: CN1CCCN(c2nc(C3CCCC3)nc3c2cnn3C)CC1
Second: c1cncc(N2CCCC3(CCN(CCN4CCCC4)CC3)C2)c1
The cytotoxicity at 70.5 h of the first is higher: 14.5% for the first, -1.3% for the second.

Compared with Cc1cc(-n2nc(C3CC3)nc2-c2csnn2)ccn1, CCCN(CCn1c(=O)oc2ccccc21)CC1CC1 is higher in cytotoxicity at 70.5 h: -10.1% for the first, 1.08% for the second.

Going from COc1ccc(Cl)cc1C(=O)N1C[C@@H](NC(=O)N(C)C)[C@H](C(C)C)C1 to CC(SCCC(=O)NC(N)=O)c1cccc(F)c1 (centres undefined), the cytotoxicity at 70.5 h rises from -10.5% to 15.9%.

First: Cc1nc(-c2ccc(Cl)s2)sc1C(=O)O
Second: CN(Cc1ccco1)C(=O)c1ccc(=O)n(C)c1
The cytotoxicity at 70.5 h of the first is higher: 1.47% for the first, -6.1% for the second.

Compared with CC(C)CN1CCC2(CC(C(=O)NCc3cccnc3)=NO2)C1 (centres undefined), CCn1ccnc1CN1CCN(C(C)C(=O)NCc2ccco2)CC1 (centres undefined) is higher in cytotoxicity at 70.5 h: -5.8% for the first, 16.6% for the second.

Compared with CSCCCN1C[C@H](NC(=O)c2cc(C3CC3)on2)[C@@H](C2CC2)C1, Cc1cc(NC(=O)C(C)Cn2cc(Br)cn2)no1 (centres undefined) is higher in cytotoxicity at 70.5 h: -7.58% for the first, 1.29% for the second.
